Test results: EP2518054A1, “AMIDE COMPOUND” (Takeda Pharmaceutical Company Limited, priority 2009, dated 2011)

molecular target: T1, human GPR52 (Homo sapiens, UniProt Q9Y2T5); test: Increase of intracellular cAMP concentration in human GPR52-expressing CHO cell (AlphaScreen cAMP assay); format: cell-based; settings: CHO, 1µM test compound; 100% = cAMP with 1 µM Reference Example 79, 0% = DMSO; human GPR52-expressing CHO(dhfr-) cells, 37°C, 30 min; read-out: GPR52 agonist activity (%)
T1 construct: expressed in transfected cells; host or cells: CHO(dhfr-) cells
Protocol: Increase of intracellular cAMP concentration in human GPR52-expressing CHO cell
Using OptiPlate-384 (PerkinElmer Inc.), 1×10^4 human GPR52-expressing CHO(dhfr-) cells were incubated together with various concentration(10^-5µM - 10µm) of a test compound in an assay buffer (30 µL, HBSS (containing Ca^2+ and Mg^2+), 0.5% BSA, 100 µM IBMX, 100 µM Ro20-1724, 5 mM HEPES (pH 7.55)) at 37°C for 30 min. Thereafter, according to the protocol of AlphaScreen CAMP Assay Kit (PerkinElmer Inc.), the intracellular cAMP concentration was measured by EnVision (PerkinElmer Inc.). The GPR52 agonist activity was calculated, assuming the intracellular cAMP concentration in the presence of […] N-(2-hydroxyethyl)-3-[2-[3-(trifluoromethyl)benzyl]-1-benzofuran-4-yl]benzamide (Reference Example 79) to be 100% and assuming the intracellular cAMP concentration when DMSO was added instead of the test compound to be 0%.

T1 sequence (Q9Y2T5 whole entry): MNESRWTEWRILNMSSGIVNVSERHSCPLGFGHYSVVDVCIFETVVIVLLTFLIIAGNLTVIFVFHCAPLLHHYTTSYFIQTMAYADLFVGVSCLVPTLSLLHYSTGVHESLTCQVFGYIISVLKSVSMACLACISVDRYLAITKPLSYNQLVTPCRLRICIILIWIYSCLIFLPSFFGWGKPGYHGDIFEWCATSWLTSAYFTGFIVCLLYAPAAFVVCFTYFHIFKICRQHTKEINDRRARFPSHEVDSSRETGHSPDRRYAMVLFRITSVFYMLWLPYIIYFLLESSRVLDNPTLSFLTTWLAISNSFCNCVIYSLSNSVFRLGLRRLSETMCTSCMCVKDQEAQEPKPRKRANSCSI

First: Cc1nc(-c2cccc3cc(Cc4cccc(C(F)(F)F)c4)sc23)oc1C(=O)NCC(N)=O [Example 11, N-(2-amino-2-oxoethyl)-4-methyl-2-[2-[3-(trifluoromethyl)benzyl]-1-benzothiophen-7-yl]-1,3-oxazole-5-carboxamide]
Second: Cc1nc(-c2cccc3cc(Cc4cccc(C(F)(F)F)c4)sc23)sc1C(=O)NCC(N)=O [Example 37, N-(2-amino-2-oxoethyl)-4-methyl-2-[2-[3-(trifluoromethyl)benzyl]-1-benzothiophen-7-yl]-1,3-thiazole-5-carboxamide]
The activity at 1 µM of the first is lower: 70% for the first, 97% for the second.

Going from `Cc1cn(-c2cccc3cc(Cc4cccc(C(F)(F)F)c4)sc23)cc1C(=O)NCC(N)=O` [Example 12, N-(2-amino-2-oxoethyl)-4-methyl-1-[2-[3-(trifluoromethyl)benzyl]-1-benzothiophen-7-yl]-1H-pyrrole-3-carboxamide] to `Cc1nn(-c2cccc3cc(Cc4cccc(C(F)(F)F)c4)sc23)cc1C(=O)NCC(N)=O` [Example 16, N-(2-amino-2-oxoethyl)-3-methyl-1-[2-[3-(trifluoromethyl)benzyl]-1-benzothiophen-7-yl]-1H-pyrazole-4-carboxamide], the activity at 1 µM falls from 107% to 94%.

Compared with `COCCNC(=O)c1cnn(-c2cccc3cc(Cc4cccc(C(F)(F)F)c4)sc23)c1C` [Example 13, N-(2-methoxyethyl)-5-methyl-1-[2-[3-(trifluoromethyl)benzyl]-1-benzothiophen-7-yl]-1H-pyrazole-4-carboxamide], `COCCNC(=O)c1c(C)nn(-c2cccc3cc(Cc4cccc(C(F)(F)F)c4)sc23)c1C` [Example 51, N-(2-methoxyethyl)-3,5-dimethyl-1-[2-[3-(trifluoromethyl)benzyl]-1-benzothiophen-7-yl]-1H-pyrazole-4-carboxamide] is higher in activity at 1 µM: 79% for the first, 102% for the second.

Going from `O=C(NCCO)c1cn(-c2cccc3cc(Cc4cccc(C(F)(F)F)c4)sc23)nc1C(F)(F)F` [Example 20, N-(2-hydroxyethyl)-3-(trifluoromethyl)-1-[2-[3-(trifluoromethyl)benzyl]-1-benzothiophen-7-yl]-1H-pyrazole-4-carboxamide] to `NC(=O)CNC(=O)c1cn(-c2cccc3cc(Cc4cccc(C(F)(F)F)c4)sc23)nc1C(F)(F)F` [Example 21, N-(2-amino-2-oxoethyl)-3-(trifluoromethyl)-1-[2-[3-(trifluoromethyl)benzyl]-1-benzothiophen-7-yl]-1H-pyrazole-4-carboxamide], the activity at 1 µM rises from 79% to 94%.

First: NC(=O)c1cn(-c2cccc3cc(Cc4cccc(C(F)(F)F)c4)sc23)nc1C(F)(F)F [Example 22, 3-(trifluoromethyl)-1-[2-[3-(trifluoromethyl)benzyl]benzothiophen-7-yl]-1H-pyrazole-4-carboxamide]
Second: Cc1cn(-c2cccc3cc(Cc4cccc(C(F)(F)F)c4)sc23)nc1C(=O)NCC(N)=O [Example 30, N-(2-amino-2-oxoethyl)-4-methyl-1-[2-[3-(trifluoromethyl)benzyl]-1-benzothiophen-7-yl]-1H-pyrazole-3-carboxamide]
The activity at 1 µM of the first is lower: 93% for the first, 96% for the second.

Going from `CC(C)c1nn(-c2cccc3cc(Cc4cccc(C(F)(F)F)c4)sc23)cc1C(=O)NCCO` [Example 26, N-(2-hydroxyethyl)-3-(1-methylethyl)-1-[2-[3-(trifluoromethyl)benzyl]-1-benzothiophen-7-yl]-1H-pyrazole-4-carboxamide] to `O=C(NCCO)c1cn(-c2cccc3cc(Cc4cccc(C(F)(F)F)c4)sc23)nc1C1CC1` [Example 29, 3-cyclopropyl-N-(2-hydroxyethyl)-1-[2-[3-(trifluoromethyl)benzyl]-1-benzothiophen-7-yl]-1H-pyrazole-4-carboxamide], the activity at 1 µM rises from 96% to 97%.

Compared with `NC(=O)CNC(=O)c1cn(-c2cccc3cc(Cc4cccc(C(F)(F)F)c4)sc23)nc1C1CC1` [Example 28, N-(2-amino-2-oxoethyl)-3-cyclopropyl-1-[2-[3-(trifluoromethyl)benzyl]-1-benzothiophen-7-yl]-1H-pyrazole-4-carboxamide], `Cc1cc(C(=O)NCC(N)=O)n(-c2cccc3cc(Cc4cccc(C(F)(F)F)c4)sc23)n1` [Example 31, N-(2-amino-2-oxoethyl)-3-methyl-1-[2-[3-(trifluoromethyl)benzyl]-1-benzothiophen-7-yl]-1H-pyrazole-5-carboxamide] is lower in activity at 1 µM: 95% for the first, 84% for the second.

Compared with `Cc1cc(C(=O)NCCO)n(-c2cccc3cc(Cc4cccc(C(F)(F)F)c4)sc23)n1` [Example 33, N-(2-hydroxyethyl)-3-methyl-1-[2-[3-(trifluoromethyl)benzyl]-1-benzothiophen-7-yl]-1H-pyrazole-5-carboxamide], `Cc1nn(-c2cccc3cc(Cc4cccc(C(F)(F)F)c4)sc23)c(C)c1C(=O)NCCO` [Example 52, N-(2-hydroxyethyl)-3,5-dimethyl-1-[2-[3-(trifluoromethyl)benzyl]-1-benzothiophen-7-yl]-1H-pyrazole-4-carboxamide] is higher in activity at 1 µM: 79% for the first, 107% for the second.

Going from `Cc1nc(-c2cccc3cc(Cc4cccc(C(F)(F)F)c4)sc23)sc1C(N)=O` [Example 36, 4-methyl-2-[2-[3-(trifluoromethyl)benzyl]-1-benzothiophen-7-yl]-1,3-thiazole-5-carboxamide] to `Cc1nc(-c2cccc3cc(Cc4cccc(C(F)(F)F)c4)sc23)sc1C(=O)NCCO` [Example 39, N-(2-hydroxyethyl)-4-methyl-2-[2-[3-(trifluoromethyl)benzyl]-1-benzothiophen-7-yl]-1,3-thiazole-5-carboxamide], the activity at 1 µM falls from 96% to 93%.

Compared with `Cc1nc(-c2cccc3cc(Cc4cccc(C(F)(F)F)c4)sc23)sc1C(=O)NCCC#N` [Example 38, N-(2-cyanoethyl)-4-methyl-2-[2-[3-(trifluoromethyl)benzyl]-1-benzothiophen-7-yl]-1,3-thiazole-5-carboxamide], `COCCNC(=O)c1sc(-c2cccc3cc(Cc4cccc(C(F)(F)F)c4)sc23)nc1C` [Example 40, N-(2-methoxyethyl)-4-methyl-2-[2-[3-(trifluoromethyl)benzyl]-1-benzothiophen-7-yl]-1,3-thiazole-5-carboxamide] is lower in activity at 1 µM: 101% for the first, 90% for the second.

Going from `Cc1nc(-c2cccc3oc(Cc4cccc(C(F)(F)F)c4)cc23)sc1C(N)=O` [Example 44, 4-methyl-2-[2-[3-(trifluoromethyl)benzyl]-1-benzofuran-4-yl]-1,3-thiazole-5-carboxamide] to `Cc1nc(-c2cccc3oc(Cc4cccc(C(F)(F)F)c4)cc23)sc1C(=O)NCCO` [Example 46, N-(2-hydroxyethyl)-4-methyl-2-[2-[3-(trifluoromethyl)benzyl]-1-benzofuran-4-yl]-1,3-thiazole-5-carboxamide], the activity at 1 µM falls from 92% to 90%.

Going from `Cc1nc(-c2cccc3cc(Cc4cccc(C(F)(F)F)c4)sc23)n(C)c1C(=O)NCC(N)=O` [Example 47, N-(2-amino-2-oxoethyl)-1,4-dimethyl-2-[2-[3-(trifluoromethyl)benzyl]-1-benzothiophen-7-yl]-1H-imidazole-5-carboxamide] to `Cc1nc(-c2cccc3cc(Cc4cccc(C(F)(F)F)c4)sc23)n(C)c1C(N)=O` [Example 48, 1,4-dimethyl-2-[2-[3-(trifluoromethyl)benzyl]-1-benzothiophen-7-yl]-1H-imidazole-5-carboxamide], the activity at 1 µM falls from 93% to 89%.

Compared with `Cc1c(C(N)=O)nc(-c2cccc3cc(Cc4cccc(C(F)(F)F)c4)sc23)n1C` [Example 50, 1,5-dimethyl-2-[2-[3-(trifluoromethyl)benzyl]-1-benzothiophen-7-yl]-1H-imidazole-4-carboxamide], `Cc1nn(-c2cccc3cc(Cc4cccc(C(F)(F)F)c4)sc23)c(C)c1C(N)=O` [Example 54, 3,5-dimethyl-1-[2-[3-(trifluoromethyl)benzyl]-1-benzothiophen-7-yl]-1H-pyrazole-4-carboxamide] is higher in activity at 1 µM: 79% for the first, 101% for the second.

Going from `Cc1nn(-c2cccc3cc(Cc4cccc(C(F)(F)F)c4)sc23)c(C)c1C(=O)NCC(N)=O` [Example 53, N-(2-amino-2-oxoethyl)-3,5-dimethyl-1-[2-[3-(trifluoromethyl)benzyl]-1-benzothiophen-7-yl]-1H-pyrazole-4-carboxamide] to `Cc1nn(-c2cccc3cc(Cc4cc(F)cc(Cl)c4)sc23)c(C)c1C(=O)NCC(N)=O` [Example 55, N-(2-amino-2-oxoethyl)-1-[2-(3-chloro-5-fluorobenzyl)-1-benzothiophen-7-yl]-3,5-dimethyl-1H-pyrazole-4-carboxamide], the activity at 1 µM falls from 102% to 96%.

`Cc1nn(-c2cccc3cc(Cc4cc(F)cc(Cl)c4)sc23)c(C)c1C(=O)NCCO` [Example 56, 1-[2-(3-chloro-5-fluorobenzyl)-1-benzothiophen-7-yl]-N-(2-hydroxyethyl)-3,5-dimethyl-1H-pyrazole-4-carboxamide] gave an activity at 1 µM of 105%.

same assay, conditions: concentration of the test compound at which it shows 50% activity; human GPR52-expressing CHO(dhfr-) cells; read-out: GPR52 agonist activity EC50

Compared with `Cc1nc(-c2cccc3cc(Cc4cccc(C(F)(F)F)c4)sc23)oc1C(=O)NCC(N)=O` [Example 11, N-(2-amino-2-oxoethyl)-4-methyl-2-[2-[3-(trifluoromethyl)benzyl]-1-benzothiophen-7-yl]-1,3-oxazole-5-carboxamide], `Cc1nc(-c2cccc3nn(Cc4cccc(C(F)(F)F)c4)cc23)sc1C(N)=O` [Example 41, 4-methyl-2-[2-[3-(trifluoromethyl)benzyl]-2H-indazol-4-yl]-1,3-thiazole-5-carboxamide] is 5.9-fold lower in EC50: 290 nM for the first, 49 nM for the second. The second is the more potent here.

`Cc1nn(-c2cccc3cc(Cc4cc(F)cc(Cl)c4)sc23)c(C)c1C(=O)NCCO` [Example 56, 1-[2-(3-chloro-5-fluorobenzyl)-1-benzothiophen-7-yl]-N-(2-hydroxyethyl)-3,5-dimethyl-1H-pyrazole-4-carboxamide] gave an EC50 of 6.9 nM.
